Experiments:
Histone deacetylase 4 = Histone deacetylase 4 (Homo sapiens, UniProt P56524); experiment: (§1) IC50 Assay: IC50 measurements were conducted by BPS Biosciences (Table 1) or by Nanosyn (Table 1A) with an established fluorescence assay.
[1] = biological target: T1, Protein deacetylase HDAC6 (Homo sapiens, UniProt Q9UBN7); experiment: as §1
T1 sequence (Q9UBN7 whole entry): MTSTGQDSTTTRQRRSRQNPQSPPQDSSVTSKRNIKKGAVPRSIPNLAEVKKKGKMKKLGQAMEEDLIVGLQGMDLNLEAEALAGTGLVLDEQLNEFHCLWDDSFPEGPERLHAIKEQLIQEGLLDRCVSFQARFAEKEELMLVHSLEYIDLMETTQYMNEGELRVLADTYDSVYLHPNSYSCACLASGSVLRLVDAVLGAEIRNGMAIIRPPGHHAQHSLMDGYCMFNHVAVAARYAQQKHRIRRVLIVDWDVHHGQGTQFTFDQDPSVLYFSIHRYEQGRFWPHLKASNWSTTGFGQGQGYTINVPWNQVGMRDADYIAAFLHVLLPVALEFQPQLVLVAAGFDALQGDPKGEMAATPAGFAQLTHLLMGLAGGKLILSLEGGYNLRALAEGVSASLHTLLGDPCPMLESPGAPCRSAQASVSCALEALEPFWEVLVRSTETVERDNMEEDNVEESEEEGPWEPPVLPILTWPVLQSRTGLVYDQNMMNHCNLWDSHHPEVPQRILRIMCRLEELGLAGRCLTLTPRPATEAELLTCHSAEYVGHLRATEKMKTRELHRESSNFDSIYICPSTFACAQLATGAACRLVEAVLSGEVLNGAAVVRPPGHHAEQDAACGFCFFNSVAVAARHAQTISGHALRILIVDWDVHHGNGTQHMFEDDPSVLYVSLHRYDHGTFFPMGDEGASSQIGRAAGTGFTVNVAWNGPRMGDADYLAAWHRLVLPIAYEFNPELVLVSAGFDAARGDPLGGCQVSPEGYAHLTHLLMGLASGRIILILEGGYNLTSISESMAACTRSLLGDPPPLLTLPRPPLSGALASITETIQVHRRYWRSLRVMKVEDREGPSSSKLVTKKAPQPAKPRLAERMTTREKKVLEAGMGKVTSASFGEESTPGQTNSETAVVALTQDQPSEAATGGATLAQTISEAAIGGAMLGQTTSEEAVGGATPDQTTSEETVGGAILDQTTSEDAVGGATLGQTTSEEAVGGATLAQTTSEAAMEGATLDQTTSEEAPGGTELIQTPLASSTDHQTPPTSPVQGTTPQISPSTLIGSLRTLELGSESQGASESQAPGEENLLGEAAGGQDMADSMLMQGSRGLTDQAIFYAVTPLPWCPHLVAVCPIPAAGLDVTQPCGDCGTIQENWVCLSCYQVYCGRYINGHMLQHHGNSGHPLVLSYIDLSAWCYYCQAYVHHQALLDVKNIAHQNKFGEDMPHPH

Histone deacetylase 11 = biological target: T2, Histone deacetylase 11 (Homo sapiens, UniProt Q96DB2); experiment: as §1
T2 sequence (Q96DB2 whole entry): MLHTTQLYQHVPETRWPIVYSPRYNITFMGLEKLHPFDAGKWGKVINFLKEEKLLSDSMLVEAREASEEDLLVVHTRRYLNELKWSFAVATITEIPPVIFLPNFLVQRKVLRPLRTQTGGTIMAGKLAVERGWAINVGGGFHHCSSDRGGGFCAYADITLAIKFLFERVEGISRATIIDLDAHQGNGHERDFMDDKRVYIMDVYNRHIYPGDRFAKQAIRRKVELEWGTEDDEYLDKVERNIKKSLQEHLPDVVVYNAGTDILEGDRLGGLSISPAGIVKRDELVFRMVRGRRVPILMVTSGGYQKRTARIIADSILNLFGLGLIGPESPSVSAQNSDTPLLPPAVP

Histone deacetylase 9 = Histone deacetylase 9 (Homo sapiens, UniProt Q9UKV0); experiment: as §1
Chain of Histone deacetylase 9 (Q9UKV0 whole entry): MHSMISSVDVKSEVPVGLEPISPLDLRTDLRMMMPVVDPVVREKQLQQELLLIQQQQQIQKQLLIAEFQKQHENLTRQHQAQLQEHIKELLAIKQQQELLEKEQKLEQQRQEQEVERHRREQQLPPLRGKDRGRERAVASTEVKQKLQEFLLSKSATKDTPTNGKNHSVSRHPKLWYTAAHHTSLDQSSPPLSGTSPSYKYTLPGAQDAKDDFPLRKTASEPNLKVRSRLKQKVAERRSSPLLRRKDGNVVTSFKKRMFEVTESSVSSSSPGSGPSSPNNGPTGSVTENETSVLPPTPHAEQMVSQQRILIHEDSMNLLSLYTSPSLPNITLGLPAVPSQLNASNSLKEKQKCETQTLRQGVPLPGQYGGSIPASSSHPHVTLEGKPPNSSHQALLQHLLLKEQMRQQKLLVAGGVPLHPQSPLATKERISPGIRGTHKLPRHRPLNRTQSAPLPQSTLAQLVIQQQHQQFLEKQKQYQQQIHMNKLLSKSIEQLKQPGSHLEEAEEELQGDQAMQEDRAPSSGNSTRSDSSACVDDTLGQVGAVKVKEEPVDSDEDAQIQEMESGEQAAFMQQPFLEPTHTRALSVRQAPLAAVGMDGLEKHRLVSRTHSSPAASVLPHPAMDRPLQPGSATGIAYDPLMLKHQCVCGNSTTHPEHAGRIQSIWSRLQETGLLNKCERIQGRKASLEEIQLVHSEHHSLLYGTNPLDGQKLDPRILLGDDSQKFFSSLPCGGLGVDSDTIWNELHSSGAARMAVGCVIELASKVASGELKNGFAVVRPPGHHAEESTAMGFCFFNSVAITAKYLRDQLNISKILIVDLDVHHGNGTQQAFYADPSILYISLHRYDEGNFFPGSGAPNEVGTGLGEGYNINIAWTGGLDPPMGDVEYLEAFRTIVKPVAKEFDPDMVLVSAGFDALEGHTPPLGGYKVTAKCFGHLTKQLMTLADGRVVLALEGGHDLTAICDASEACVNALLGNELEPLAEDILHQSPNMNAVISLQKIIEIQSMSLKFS

Histone deacetylase 5 = Histone deacetylase 5 (Homo sapiens, UniProt Q9UQL6); experiment: as §1
Chain of Histone deacetylase 5 (Q9UQL6 whole entry): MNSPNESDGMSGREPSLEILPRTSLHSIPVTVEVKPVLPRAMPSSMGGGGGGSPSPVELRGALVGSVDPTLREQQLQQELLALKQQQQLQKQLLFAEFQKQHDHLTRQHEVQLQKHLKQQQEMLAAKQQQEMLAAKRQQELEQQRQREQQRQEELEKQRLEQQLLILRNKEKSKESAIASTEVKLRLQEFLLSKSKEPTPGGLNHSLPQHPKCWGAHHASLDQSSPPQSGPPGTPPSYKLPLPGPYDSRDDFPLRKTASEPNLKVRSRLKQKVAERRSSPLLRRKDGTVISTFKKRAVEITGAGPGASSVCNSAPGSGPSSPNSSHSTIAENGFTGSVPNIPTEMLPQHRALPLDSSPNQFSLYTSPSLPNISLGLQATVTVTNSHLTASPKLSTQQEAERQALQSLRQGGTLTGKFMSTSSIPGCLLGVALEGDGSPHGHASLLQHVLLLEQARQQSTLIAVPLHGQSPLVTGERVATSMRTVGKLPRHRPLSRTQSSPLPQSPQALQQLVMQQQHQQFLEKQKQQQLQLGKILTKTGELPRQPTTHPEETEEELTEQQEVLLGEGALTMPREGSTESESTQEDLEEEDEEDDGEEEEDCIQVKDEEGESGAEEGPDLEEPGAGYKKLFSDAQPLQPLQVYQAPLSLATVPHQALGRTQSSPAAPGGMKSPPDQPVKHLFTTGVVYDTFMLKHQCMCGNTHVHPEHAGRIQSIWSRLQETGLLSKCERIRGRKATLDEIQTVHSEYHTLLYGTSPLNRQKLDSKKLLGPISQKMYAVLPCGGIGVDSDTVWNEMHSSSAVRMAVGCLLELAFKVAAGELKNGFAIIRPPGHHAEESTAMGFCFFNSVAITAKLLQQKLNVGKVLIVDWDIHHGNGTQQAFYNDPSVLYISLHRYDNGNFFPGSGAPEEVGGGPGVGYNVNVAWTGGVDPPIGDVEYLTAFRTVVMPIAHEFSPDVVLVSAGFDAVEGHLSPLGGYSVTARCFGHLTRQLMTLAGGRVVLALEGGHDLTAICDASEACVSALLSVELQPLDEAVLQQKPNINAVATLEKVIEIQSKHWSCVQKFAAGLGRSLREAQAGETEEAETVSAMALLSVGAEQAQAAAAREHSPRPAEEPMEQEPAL

Histone deacetylase 8 = biological target: T3, Histone deacetylase 8 (Homo sapiens, UniProt Q9BY41); experiment: as §1
T3 sequence (Q9BY41 whole entry): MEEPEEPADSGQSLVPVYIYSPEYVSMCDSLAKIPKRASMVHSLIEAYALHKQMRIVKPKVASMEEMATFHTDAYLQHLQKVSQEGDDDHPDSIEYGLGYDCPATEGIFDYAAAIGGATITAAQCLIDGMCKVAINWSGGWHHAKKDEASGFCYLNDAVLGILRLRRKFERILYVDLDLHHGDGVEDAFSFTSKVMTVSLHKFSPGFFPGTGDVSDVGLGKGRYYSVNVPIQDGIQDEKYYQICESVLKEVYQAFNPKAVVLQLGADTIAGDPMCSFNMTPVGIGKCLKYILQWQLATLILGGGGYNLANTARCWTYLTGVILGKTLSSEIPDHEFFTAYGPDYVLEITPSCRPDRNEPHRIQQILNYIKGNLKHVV

Histone deacetylase 7 = biological target: T4, Histone deacetylase 7 (Homo sapiens, UniProt Q8WUI4); experiment: as §1
T4 sequence (Q8WUI4 whole entry): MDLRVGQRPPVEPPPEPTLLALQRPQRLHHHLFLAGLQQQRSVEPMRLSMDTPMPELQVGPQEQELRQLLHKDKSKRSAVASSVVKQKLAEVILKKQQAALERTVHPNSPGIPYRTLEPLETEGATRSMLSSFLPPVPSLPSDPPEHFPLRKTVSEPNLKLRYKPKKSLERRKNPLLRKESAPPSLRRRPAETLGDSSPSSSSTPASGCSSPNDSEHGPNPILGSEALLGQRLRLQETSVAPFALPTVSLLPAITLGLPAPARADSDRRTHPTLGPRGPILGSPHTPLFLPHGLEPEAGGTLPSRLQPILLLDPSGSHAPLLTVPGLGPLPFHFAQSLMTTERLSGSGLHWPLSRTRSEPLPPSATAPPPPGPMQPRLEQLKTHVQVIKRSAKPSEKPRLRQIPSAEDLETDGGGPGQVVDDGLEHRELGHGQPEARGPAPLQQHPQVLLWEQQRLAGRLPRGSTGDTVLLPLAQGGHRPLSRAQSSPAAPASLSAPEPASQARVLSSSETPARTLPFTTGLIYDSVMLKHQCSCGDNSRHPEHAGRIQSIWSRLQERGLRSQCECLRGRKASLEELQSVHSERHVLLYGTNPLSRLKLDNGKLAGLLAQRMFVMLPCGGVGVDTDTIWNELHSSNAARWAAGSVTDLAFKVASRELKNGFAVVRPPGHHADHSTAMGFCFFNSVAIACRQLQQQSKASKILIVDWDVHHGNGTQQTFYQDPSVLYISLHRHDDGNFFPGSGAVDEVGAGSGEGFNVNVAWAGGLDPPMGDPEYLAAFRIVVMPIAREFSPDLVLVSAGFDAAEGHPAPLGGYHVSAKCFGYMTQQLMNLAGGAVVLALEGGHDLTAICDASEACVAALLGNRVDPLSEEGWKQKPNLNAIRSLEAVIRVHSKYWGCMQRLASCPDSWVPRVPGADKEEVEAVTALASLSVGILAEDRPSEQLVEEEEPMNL

Histone deacetylase 1 = Histone deacetylase 1 (Homo sapiens, UniProt Q13547); experiment: as §1
Chain of Histone deacetylase 1 (Q13547 whole entry): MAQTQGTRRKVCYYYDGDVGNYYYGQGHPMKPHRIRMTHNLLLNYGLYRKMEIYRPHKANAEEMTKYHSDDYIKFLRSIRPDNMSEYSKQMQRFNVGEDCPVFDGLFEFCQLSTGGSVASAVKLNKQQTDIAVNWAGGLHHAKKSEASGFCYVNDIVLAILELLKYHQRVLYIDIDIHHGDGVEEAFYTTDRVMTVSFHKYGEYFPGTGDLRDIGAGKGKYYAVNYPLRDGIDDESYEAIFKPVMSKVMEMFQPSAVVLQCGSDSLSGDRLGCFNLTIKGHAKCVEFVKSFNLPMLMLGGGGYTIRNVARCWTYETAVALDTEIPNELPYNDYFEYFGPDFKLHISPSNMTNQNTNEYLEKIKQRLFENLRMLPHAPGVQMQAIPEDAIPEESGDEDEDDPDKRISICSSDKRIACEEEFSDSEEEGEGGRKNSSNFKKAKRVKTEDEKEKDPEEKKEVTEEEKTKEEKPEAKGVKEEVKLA

Histone deacetylase 3 = Histone deacetylase 3 (Homo sapiens, UniProt O15379); experiment: as §1
Chain of Histone deacetylase 3 (O15379 whole entry): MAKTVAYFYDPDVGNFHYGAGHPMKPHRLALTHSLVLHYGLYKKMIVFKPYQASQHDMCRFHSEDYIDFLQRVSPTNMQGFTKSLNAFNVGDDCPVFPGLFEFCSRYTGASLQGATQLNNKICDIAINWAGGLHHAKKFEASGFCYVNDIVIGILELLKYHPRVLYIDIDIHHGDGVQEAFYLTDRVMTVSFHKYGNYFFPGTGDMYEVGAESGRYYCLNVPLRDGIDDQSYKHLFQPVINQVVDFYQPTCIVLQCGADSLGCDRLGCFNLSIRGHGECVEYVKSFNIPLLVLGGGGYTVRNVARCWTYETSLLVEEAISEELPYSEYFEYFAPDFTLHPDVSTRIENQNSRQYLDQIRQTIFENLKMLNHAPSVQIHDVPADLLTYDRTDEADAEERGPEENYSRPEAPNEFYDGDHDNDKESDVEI

[2] = biological target: T5, Polyamine deacetylase HDAC10 (Homo sapiens, UniProt Q969S8); experiment: as §1
T5 sequence (Q969S8 whole entry): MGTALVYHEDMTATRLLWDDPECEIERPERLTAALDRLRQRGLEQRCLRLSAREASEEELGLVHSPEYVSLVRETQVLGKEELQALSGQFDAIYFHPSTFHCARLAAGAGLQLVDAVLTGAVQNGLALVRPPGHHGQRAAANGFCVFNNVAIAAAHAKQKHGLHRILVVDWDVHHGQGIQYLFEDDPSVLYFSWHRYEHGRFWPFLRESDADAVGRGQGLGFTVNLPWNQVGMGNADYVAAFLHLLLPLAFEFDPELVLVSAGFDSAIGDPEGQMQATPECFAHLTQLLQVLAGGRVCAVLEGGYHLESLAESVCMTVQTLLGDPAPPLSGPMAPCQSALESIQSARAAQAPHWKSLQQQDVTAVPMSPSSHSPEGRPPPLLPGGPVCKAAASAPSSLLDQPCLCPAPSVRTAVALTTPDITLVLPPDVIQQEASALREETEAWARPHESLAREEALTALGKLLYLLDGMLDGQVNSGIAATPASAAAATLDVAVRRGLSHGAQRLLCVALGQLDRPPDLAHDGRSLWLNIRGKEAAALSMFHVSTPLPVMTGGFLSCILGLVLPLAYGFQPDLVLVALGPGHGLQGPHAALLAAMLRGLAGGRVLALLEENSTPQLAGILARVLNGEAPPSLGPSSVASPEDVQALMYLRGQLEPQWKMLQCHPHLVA

Chain of Histone deacetylase 4 (P56524 whole entry): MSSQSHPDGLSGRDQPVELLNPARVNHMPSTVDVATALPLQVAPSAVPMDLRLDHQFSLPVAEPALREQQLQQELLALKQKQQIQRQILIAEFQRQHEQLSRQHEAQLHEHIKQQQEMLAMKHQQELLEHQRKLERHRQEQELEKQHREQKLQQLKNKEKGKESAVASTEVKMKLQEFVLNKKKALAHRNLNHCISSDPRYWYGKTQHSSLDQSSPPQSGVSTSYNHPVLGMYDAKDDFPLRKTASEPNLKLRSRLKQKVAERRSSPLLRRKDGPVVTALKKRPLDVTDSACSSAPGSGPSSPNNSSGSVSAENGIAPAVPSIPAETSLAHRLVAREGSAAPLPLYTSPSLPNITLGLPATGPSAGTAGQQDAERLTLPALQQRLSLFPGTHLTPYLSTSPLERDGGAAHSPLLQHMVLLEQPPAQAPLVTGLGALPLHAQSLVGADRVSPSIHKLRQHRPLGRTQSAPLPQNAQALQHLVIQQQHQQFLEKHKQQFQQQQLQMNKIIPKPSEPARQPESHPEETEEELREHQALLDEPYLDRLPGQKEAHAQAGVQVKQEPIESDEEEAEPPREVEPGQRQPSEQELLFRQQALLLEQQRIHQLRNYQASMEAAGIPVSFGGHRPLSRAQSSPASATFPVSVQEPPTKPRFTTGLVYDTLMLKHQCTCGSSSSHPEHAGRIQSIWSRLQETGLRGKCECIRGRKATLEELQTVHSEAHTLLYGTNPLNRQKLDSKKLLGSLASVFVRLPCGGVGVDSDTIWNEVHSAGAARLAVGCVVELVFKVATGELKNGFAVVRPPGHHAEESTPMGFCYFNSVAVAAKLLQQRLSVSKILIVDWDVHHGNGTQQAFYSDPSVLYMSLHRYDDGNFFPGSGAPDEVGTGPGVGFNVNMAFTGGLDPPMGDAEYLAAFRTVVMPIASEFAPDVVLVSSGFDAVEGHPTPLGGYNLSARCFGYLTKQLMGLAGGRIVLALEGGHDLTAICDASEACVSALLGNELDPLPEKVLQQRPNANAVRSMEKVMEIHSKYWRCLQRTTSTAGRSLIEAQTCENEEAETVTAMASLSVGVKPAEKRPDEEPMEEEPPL

Row | Structure (SMILES) | IC50 (Histone deacetylase 4) [µM] | IC50 [1] [µM] | IC50 (Histone deacetylase 11) [µM] | IC50 (Histone deacetylase 9) [µM] | IC50 (Histone deacetylase 5) [µM] | IC50 (Histone deacetylase 8) [µM] | IC50 (Histone deacetylase 7) [µM] | IC50 (Histone deacetylase 1) [µM] | IC50 (Histone deacetylase 3) [µM] | IC50 [2] [µM]
1 | CN(Cc1ccc(/C=C/C(=O)NO)cc1F)CC12CC3CC(CC(C3)C1)C2 | > 1 | 0.18 | > 1 | > 1 | > 1 | > 1 | > 1 | 0.017 | 0.023 | 0.033
2 | CC(=O)Nc1ccc(C(=O)Nc2ccccc2N)cc1 [TACEDINALINE] |  |  | 2.83 |  |  |  |  |  |  | 
3 | O=C(CCCCCCNC(=O)c1cnc(N(c2ccccc2)c2ccccc2)nc1)NO [RICOLINOSTAT] |  |  |  |  |  |  |  |  |  | > 1

From ChEMBL document CHEMBL5728890, “HDAC6 inhibitors and imaging agents” (2021)
